What was measured:
[1] = biological target: E. coli MurD (Escherichia coli, UniProt P14900); assay: biochemical; conditions: for remaining activity at 100 µM: 0.25 h, Table S1, PKIS screening, read-out: RA [%] at 100 µM MurD
Protocol: (§1) Inhibition of the Mur ligases was determined using the malachite green assay, with slight modifications.
(§2) In all cases, the final concentration of DMSO was 5% (v/v). After incubation for 15 min at 37 °C, the enzyme reaction was terminated by addition of 100 µM Biomol green reagent, and the absorbance was measured at 650 nm after 5 min. All of the experiments were run in duplicate. Residual activities were calculated with respect to control assays without the tested compounds, but with the 5% DMSO carrier.
(§3) The published kinase inhibitor set compounds were evaluated for inhibition of MurC, D and F ligases from E. coli using the Malachite green assay, which detects orthophosphate generated during enzymatic reactions. To avoid non-specific inhibition due to aggregate formation, all of the compounds were tested in the presence of detergent (0.005% Triton-X114). The data are presented as the residual activities of these Mur ligases in the presence of 100 µM of each test compound (Supporting Information Table S1).

[2] = biological target: E. coli MurC (Escherichia coli, UniProt P17952); assay: Malachite green inhibition assay, MurC; format: biochemical; conditions: Table S1, PKIS screening; for remaining activity at 100 µM: 0.25 h, read-out: RA [%] at 100 µM MurC
Sequence of E. coli MurC (P17952 whole entry): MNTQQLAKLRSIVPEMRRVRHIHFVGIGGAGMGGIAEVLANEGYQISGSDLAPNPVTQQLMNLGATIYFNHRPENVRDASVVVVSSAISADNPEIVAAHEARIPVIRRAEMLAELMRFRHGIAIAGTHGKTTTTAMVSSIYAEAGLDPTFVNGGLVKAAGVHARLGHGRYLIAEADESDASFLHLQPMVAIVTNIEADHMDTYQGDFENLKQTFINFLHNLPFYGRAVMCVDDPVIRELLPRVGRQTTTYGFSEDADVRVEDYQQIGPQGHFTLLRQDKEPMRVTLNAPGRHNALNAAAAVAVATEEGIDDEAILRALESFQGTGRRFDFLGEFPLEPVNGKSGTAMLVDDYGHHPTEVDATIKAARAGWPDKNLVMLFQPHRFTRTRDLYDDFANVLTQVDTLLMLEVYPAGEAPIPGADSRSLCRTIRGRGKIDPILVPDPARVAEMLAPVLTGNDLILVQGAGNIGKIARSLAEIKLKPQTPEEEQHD
Protocol: as §1, §2
as §3, with “S1). […] Additionally, regarding the data of profiled compounds in large panels of human kinase assays[41]” for “S1).”

[3] = biological target: E. coli MurF (Escherichia coli, UniProt P11880); assay: biochemical; conditions: Table S1, PKIS screening; for remaining activity at 100 µM: 0.25 h, read-out: RA [%] at 100 µM MurF
Sequence of E. coli MurF (P11880 whole entry): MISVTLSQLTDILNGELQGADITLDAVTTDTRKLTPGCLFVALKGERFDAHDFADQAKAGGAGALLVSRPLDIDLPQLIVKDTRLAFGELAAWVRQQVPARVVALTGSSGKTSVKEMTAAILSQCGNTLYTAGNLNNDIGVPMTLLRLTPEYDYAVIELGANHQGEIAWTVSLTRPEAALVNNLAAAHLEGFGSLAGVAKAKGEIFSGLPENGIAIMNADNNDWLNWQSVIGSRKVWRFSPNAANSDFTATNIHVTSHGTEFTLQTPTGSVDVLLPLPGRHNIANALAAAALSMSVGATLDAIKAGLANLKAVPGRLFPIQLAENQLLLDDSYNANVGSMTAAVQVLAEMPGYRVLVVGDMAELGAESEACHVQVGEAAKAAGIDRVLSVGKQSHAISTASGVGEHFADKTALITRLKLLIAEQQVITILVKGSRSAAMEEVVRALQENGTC
Protocol: as §1, §2
as §3, with “S1). […] Additionally, regarding the data of profiled compounds in large panels of human kinase assays[41]” for “S1).”

Sequence of E. coli MurD (P14900 whole entry): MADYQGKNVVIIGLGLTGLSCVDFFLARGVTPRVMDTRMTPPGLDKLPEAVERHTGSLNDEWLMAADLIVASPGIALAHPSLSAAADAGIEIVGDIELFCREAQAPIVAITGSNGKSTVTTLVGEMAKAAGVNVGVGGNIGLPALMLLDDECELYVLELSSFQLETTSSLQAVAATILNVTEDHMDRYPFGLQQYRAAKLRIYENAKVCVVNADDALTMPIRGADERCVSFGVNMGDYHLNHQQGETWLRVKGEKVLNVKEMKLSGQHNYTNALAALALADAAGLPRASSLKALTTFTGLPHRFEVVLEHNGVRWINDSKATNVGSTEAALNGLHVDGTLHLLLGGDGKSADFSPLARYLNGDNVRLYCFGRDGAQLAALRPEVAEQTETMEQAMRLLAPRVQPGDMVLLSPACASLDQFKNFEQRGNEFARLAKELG

Row | Structure (SMILES) | RA [%] at 100 µM MurD [1] | RA [%] at 100 µM MurC [2] [%] | RA [%] at 100 µM MurF [3] [%] | remaining activity at 100 µM [1] [%] | remaining activity at 100 µM [2] [%] | remaining activity at 100 µM [3] [%]
1 | Nc1nccc(-c2c(-c3ccc(F)cc3)ncn2C2CCNCC2)n1 [SB-220025-R#3] | 87 | 81 | 100 | – | – | –
2 | CCn1c(-c2nonc2N)nc2c(C#CC(C)(C)O)ncc(OC3CCNCC3)c21 [GSK619487A] | – | – | – | 86 | 77 | 100
3 | Fc1cccc(COc2ccc(Nc3ncnc4sc(-c5cccs5)cc34)cc2Cl)c1 [GW684626B] | – | – | – | 75 | 59 | 100
4 | CCn1c(-c2nonc2N)nc2c(C#CC(C)(C)O)nc(OC[C@@H](N)c3ccccc3)cc21 [GSK938890A] | – | – | – | 80 | 76 | 92
5 | CNC(=O)c1cncc(/C=C/c2ccccc2C)c1 [GW445015X] | – | – | – | 91 | 100 | 85
6 | O=C(Nc1n[nH]c2nc(-c3ccc(O)cc3)c(Br)cc12)C1CC1 [SB-725317] | – | – | – | 96 | 84 | 89
7 | COc1cccc(-n2ncc3c(N/N=C/c4ccc(C)cc4)ncnc32)c1 [GW829877X] | – | – | – | 85 | 70 | 76
8 | CN1CCC(n2cnc(-c3ccc(F)cc3)c2-c2ccnc(Nc3ccccc3)n2)CC1 [SB-236687] | – | – | – | 90 | 79 | 67
9 | Nc1nc(-c2ccc(F)cc2)c(-c2ccc3ncccc3n2)s1 [GW785804X] | – | – | – | 82 | 100 | 78
10 | Nc1ncc(-c2cccc(S(N)(=O)=O)c2)c2scc(-c3ccc(F)c(Cl)c3)c12 [GW856804X] | – | – | – | 75 | 64 | 71
11 | CCN(CC)Cc1ccc(Nc2nccc(-c3cnn4ncccc34)n2)cc1 [GW780056X] | – | – | – | 78 | 78 | 88
12 | NS(=O)(=O)c1ccc(N/N=C2\C(=O)Nc3ccc(-c4cnco4)cc32)cc1 [GW276655X] | – | – | – | 73 | 84 | 22
13 | Nc1nccc(-c2c(-c3ccc(F)cc3)ncn2C2CCC(O)CC2)n1 (stereo not drawn) [SB-223133] | – | – | – | 87 | 64 | 88
14 | COc1cccc(-n2nc(C)c3c(N/N=C(\C)c4ccncc4)ncnc32)c1 [GW809885X] | – | – | – | 74 | 76 | 100
15 | NS(=O)(=O)c1cccc(-c2cc3ccncc3cc2OCc2ccccc2)c1 [GSK980961A] | – | – | – | 86 | 80 | 66
16 | O=C(NCC1CC1)c1ccc(-c2cccc(C(=O)NC3CC3)c2)cc1 [GW806776X] | – | – | – | 95 | 84 | 78
17 | CN1CCN(C(=O)c2ccc(NC(=O)Nc3ccc(N(C)c4ccnc(Nc5ccc(CS(C)(=O)=O)cc5)n4)cc3)cc2)CC1 [GW830263A] | – | – | – | 69 | 51 | 73
18 | NS(=O)(=O)c1ccc(-c2ccc3c(NC(=O)C4CC4)n[nH]c3c2)cc1 [SB-738482] | – | – | – | 83 | 75 | 83
19 | NC(=O)c1sc(-n2cnc3ccccc32)cc1OCc1ccccc1Br [GSK1023156A] | – | – | – | 82 | 55 | 84
20 | CCn1c(-c2nonc2N)nc2ccccc21 [GW549034X] | – | 70 | 93 | 100 | – | –
21 | COc1cc(N2CCN(C(C)C)CC2)ccc1Nc1nc(Nc2cccc(F)c2C(=O)O)c2cc[nH]c2n1 [GSK1819799A] | – | – | – | 37 | 0 | 39
22 | Nc1ncnc2occ(-c3ccc(NC(=O)Nc4cc(C(F)(F)F)cc(C(F)(F)F)c4)cc3)c12 [GW795486X] | – | – | – | 57 | 36 | 71
23 | COC(=O)c1sc(-n2cnc3cc(OC)c(OC)cc32)cc1OCc1ccccc1C(F)(F)F [GSK1030058A] | – | – | – | 78 | 32 | 55

Row | Structure (SMILES) | RA [%] at 100 µM MurD [1] | RA [%] at 100 µM MurC [2] [%] | RA [%] at 100 µM MurF [3] [%] | remaining activity at 100 µM [1] [%] | remaining activity at 100 µM [2] [%] | remaining activity at 100 µM [3] [%]
24 | CCn1c(-c2nonc2N)nc2c(C#CC(C)(C)O)ncc(OCC3CCNCC3)c21 [GSK554170A] | – | – | – | 89 | 85 | 96
25 | COc1cc2c(cc1Nc1nc(N3CCc4ccccc43)c3cc[nH]c3n1)N(C(=O)CN(C)C)CC2 [GSK2186269A] | – | – | – | 100 | 23 | 26
26 | COC(=O)Nc1nc2ccc(Oc3ccc(NC(=O)Nc4cccc(Cl)c4)cc3)cc2[nH]1 [GW589961A] | – | – | – | 81 | 77 | 83
27 | COc1ccccc1-c1cc(/C=C2\C(=O)Nc3ncc(Br)cc32)cc(Br)c1O [GW442130X] | – | – | – | 84 | 100 | 67
28 | COc1ccc2ncn(-c3cc(O[C@H](C)c4ccccc4C(F)(F)F)c(C(N)=O)s3)c2c1 [GSK317315A] | – | – | – | 47 | 53 | 51
29 | Fc1ccc(-c2nc3n(c2-c2ccncc2)CCS3)cc1 [SKF-86002-A2] | 91 | 75 | 97 | – | – | –
30 | Cc1nnc(-c2ccc(C)c(-c3ccc(C(=O)Nc4cccc(C#N)c4)cc3)c2)o1 [GW607117X] | – | – | – | 100 | 72 | 90
31 | NS(=O)(=O)c1ccc(N/N=C2\C(=O)Nc3ccc4ncccc4c32)cc1 [GW305178X] | – | – | – | 57 | 52 | 56
32 | CCOc1ccc2c(-c3ccnc(Nc4cc(OC)cc(C(F)(F)F)c4)n3)cnn2n1 [GW807982X] | – | – | – | 78 | 55 | 50
33 | CCOc1ccc2c(-c3ccnc(Nc4cccc(C(F)(F)F)c4)n3)cnn2n1 [GW811761X] | – | – | – | 93 | 64 | 74
34 | Cc1cc(O)cc(C)c1/C=C/c1cncc(C(=O)OC(C)(C)C)c1 [GW439255X] | – | – | – | 96 | 75 | 69
35 | COc1ccc(-c2cc3c(N)ncnc3o2)cc1 [GW642138X] | – | – | – | 93 | 74 | 81
36 | O=C1NC(=O)C(c2cccc(Cl)c2)=C1Nc1ccc(Cl)c(C(=O)O)c1 [SB-409513] | – | – | – | 88 | 94 | 78
37 | CS(=O)(=O)CCNCc1ccc(-c2ccc3ncnc(Nc4ccc(OCc5ccccc5)c(Br)c4)c3c2)o1 [GW580496A] | – | – | – | 48 | 95 | 90
38 | CS(=O)(=O)CCNCc1ccc(-c2ccc3ncnc(Nc4ccc(OCc5cccc(C(F)(F)F)c5)cc4)c3c2)o1 [GW567808A] | – | – | – | 34 | 56 | 100
39 | COc1cc2ncnc(Nc3ccc(C)c(O)c3)c2cc1OC [GW410563A] | – | – | – | 92 | 60 | 100
40 | O=C(Nc1n[nH]c2nc(-c3ccco3)c(Br)cc12)C1CC1 [SB-739452] | – | – | – | 84 | 78 | 87
41 | NS(=O)(=O)c1cccc(N/C=C2\C(=O)Nc3ccccc32)c1 [GW275616X] | – | – | – | 88 | 84 | 83
42 | C[C@@H](Oc1cc(-n2cnc3ccc(OC4CCN(C)CC4)cc32)sc1C(N)=O)c1ccccc1Cl [GSK579289A] | – | – | – | 70 | 67 | 66
43 | [O-][S+]1CCN(Cc2ccc(-c3ccc4ncnc(Nc5ccc(OCc6cccc(F)c6)c(Cl)c5)c4c3)o2)CC1 [GW576609A] | – | – | – | 54 | 71 | 78
44 | CN(C)c1cc2c(Nc3ccc4nc(Cc5ccccc5)[nH]c4c3)ncnc2cn1 [GW301888X] | – | – | – | 80 | 83 | 75
45 | Cc1ccc(NC(=O)c2ccnc(N3CCCC3)c2)cc1-c1ccc(C(=O)NCC2CC2)cc1 [GW769076X] | – | – | – | 56 | 38 | 62
